Source: ChEMBL document CHEMBL3044762, “Design, Synthesis and Evaluation of Trisubstituted Thiazoles Targeting Plasmodium Falciparum Cysteine Proteases” (Med Chem Res, 2005)

Columns and labels:
Leishmania donovani = assay: Antileishmanial activity against Leishmania donovani promastigotes after 72 hr by alamar blue assay; format: functional, organism-based
Plasmodium falciparum [1] = assay: Antimalarial activity against Plasmodium falciparum D6 at EC50 after 72 hr by LDH assay; format: functional; parameters: concentration or dose not given beside the values
Plasmodium falciparum [2] = assay: Antimalarial activity against Plasmodium falciparum W2 […] after 72 hr by LDH assay; format: functional
Plasmodium falciparum [3] = assay: Antimalarial activity against Plasmodium falciparum W2 after 72 hr by LDH assay; format: functional, organism-based; details: W2, 72 h
Plasmodium falciparum [4] = assay: Antimalarial activity against Plasmodium falciparum D6 after 72 hr by LDH assay; format: functional, organism-based; details: D6, 72 h
Vero [5] = assay: (§1) Cytotoxicity against Chlorocebus aethiops (African green monkey) Vero cells by Neutral Red assay; format: cell-based; details: chlorocebus sabaeus, vero
Falcipain-3 = Falcipain-3 (Plasmodium falciparum, UniProt Q8IIL0); assay: Inhibition of recombinant Plasmodium falciparum falcipain-3 using Z-Leu-Arg-AMC as substrate compound treated for 30 min before substrate addition by fluorescence assay
Falcipain 2 = target: T1, Falcipain 2 (Plasmodium falciparum, UniProt Q9N6S8); assay: Inhibition of recombinant Plasmodium falciparum falcipain-2 using Z-Leu-Arg-AMC as substrate compound treated for 30 min before substrate addition by fluorescence assay
T1 sequence (Q9N6S8 whole entry): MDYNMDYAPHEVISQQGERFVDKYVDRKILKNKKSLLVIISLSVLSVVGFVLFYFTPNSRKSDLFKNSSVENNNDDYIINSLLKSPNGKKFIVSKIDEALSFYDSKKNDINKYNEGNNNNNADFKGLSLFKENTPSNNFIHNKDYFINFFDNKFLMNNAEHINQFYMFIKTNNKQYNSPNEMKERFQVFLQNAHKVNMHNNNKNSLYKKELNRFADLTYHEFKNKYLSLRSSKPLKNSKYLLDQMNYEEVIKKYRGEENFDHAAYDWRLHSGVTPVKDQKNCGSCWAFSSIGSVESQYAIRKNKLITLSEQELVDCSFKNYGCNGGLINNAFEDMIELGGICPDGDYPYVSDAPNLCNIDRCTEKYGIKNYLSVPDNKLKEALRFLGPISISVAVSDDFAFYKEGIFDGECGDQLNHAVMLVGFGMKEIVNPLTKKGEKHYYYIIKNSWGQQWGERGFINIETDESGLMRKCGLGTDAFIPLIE

[6] = as §1; format: cell-based; details: chlorocebus sabaeus, Vero cells; read-out: TD50 (the source's name)
Vero [7] = assay: Cytotoxicity against Chlorocebus aethiops (African green monkey) Vero cells at TD50 by Neutral Red assay; format: cell-based; details: chlorocebus sabaeus

Chain of Falcipain-3 (Q8IIL0 whole entry, looked up): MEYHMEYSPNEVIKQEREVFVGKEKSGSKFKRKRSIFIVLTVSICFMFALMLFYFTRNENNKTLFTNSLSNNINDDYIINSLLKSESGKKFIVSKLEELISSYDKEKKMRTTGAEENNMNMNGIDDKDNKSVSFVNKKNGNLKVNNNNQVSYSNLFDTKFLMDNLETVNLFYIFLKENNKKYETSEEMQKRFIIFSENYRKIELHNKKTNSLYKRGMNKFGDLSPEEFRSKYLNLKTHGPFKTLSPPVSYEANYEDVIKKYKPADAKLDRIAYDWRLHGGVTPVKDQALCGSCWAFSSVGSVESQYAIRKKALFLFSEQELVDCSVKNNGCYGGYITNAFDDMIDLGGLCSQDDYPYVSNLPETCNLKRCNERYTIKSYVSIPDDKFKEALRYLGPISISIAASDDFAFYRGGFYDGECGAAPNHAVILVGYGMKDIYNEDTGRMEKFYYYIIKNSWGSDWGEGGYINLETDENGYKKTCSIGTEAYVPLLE

Row | Structure (SMILES) | EC50 (Plasmodium falciparum [3]) [µM] | EC50 (Plasmodium falciparum [4]) [µM] | IC50 (Falcipain-3) [µM] | IC50 (Falcipain 2) [µM] | EC50 (Leishmania donovani) [µM] | inhibition (INH) (Plasmodium falciparum [1]) [%] | inhibition (INH) (Plasmodium falciparum [2]) [%] | TD50 (Vero [5]) | CC50 [6] [µM] | Activity (Vero [7]) [%]
1 | Nc1nc(CCc2ccccc2)c(CCCO)s1 | > 90.7 | > 90.7 | – | – | > 152 | 37 | 26 | Non-toxic | – | –
2 | CCOC(=O)CCc1sc(NC(=O)CSCCCc2ccccc2)nc1/C=C/c1ccccc1 | 20.2 | 28.3 | – | – | 50.5 | – | – | Non-toxic | – | –
3 | NC(=O)CCc1sc(NC(=O)CSCCCc2ccccc2)nc1/C=C/c1ccccc1 | > 51.1 | > 51.1 | 55.2 | 15.3 | 47.2 | 45 | 26 | Non-toxic | – | –
4 | C[C@@H]1[C@H](O)[C@@H](C)/C=C/C=C/C=C/C=C/C=C/C=C/C=C/[C@H](O[C@@H]2O[C@H](C)[C@@H](O)[C@H](N)[C@@H]2O)C[C@@H]2O[C@](O)(C[C@@H](O)C[C@@H](O)[C@H](O)CC[C@@H](O)C[C@@H](O)CC(=O)O[C@H]1C)C[C@H](O)[C@H]2C(=O)O [AMPHOTERICIN B] | – | – | – | – | 0.2 | – | – | – | – | –
5 | C[C@@H]1CC[C@H]2[C@@H](C)C(=O)O[C@@H]3O[C@@]4(C)CC[C@@H]1[C@]32OO4 [ARTEMISININ] | 0.023 | 0.025 | – | – | – | – | – | – | – | –
6 | CCN(CC)CCCC(C)Nc1ccnc2cc(Cl)ccc12 (stereo not drawn) [CHLOROQUINE] | 0.359 | 0.059 | – | – | – | – | – | – | – | –
7 | N=C(N)c1ccc(OCCCCCOc2ccc(C(=N)N)cc2)cc1 [PENTAMIDINE] | – | – | – | – | 5 | – | – | – | – | –

Second part, led by results:

Row | EC50 (Plasmodium falciparum [3]) [µM] | EC50 (Plasmodium falciparum [4]) [µM] | IC50 (Falcipain-3) [µM] | IC50 (Falcipain 2) [µM] | Structure (SMILES) | EC50 (Leishmania donovani) [µM] | inhibition (INH) (Plasmodium falciparum [1]) [%] | inhibition (INH) (Plasmodium falciparum [2]) [%] | TD50 (Vero [5]) | CC50 [6] [µM] | Activity (Vero [7]) [%]
8 | 13.8 | 35.4 | 29.4 | < 6.6 | O=C(/C=C/c1nc(CCc2ccccc2)c(CCCO)s1)CSCCCc1ccccc1 | 4.5 | – | – | – | > 51.1 | –
9 | 19.1 | 20.3 | > 50 | > 12.5 | O=C(CCc1nc(CCc2ccccc2)c(CCCO)s1)CSCCCc1ccccc1 | 16.3 | – | – | – | 40.6 | –
10 | > 51.1 | > 51.1 | > 50 | 39.1 | O=CCCc1sc(CCC(=O)CSCCCc2ccccc2)nc1CCc1ccccc1 | 8.2 | 45 | 26 | Non-toxic | – | –
11 | > 49.5 | > 49.5 | > 50 | > 33 | NC(=O)CCc1sc(CCC(=O)CSCCCc2ccccc2)nc1CCc1ccccc1 | 41.6 | 42 | 43 | – | > 49.5 | 38
12 | 16.8 | 32.4 | > 50 | > 33 | CC(=O)NCCCc1sc(CCC(=O)CSCCCc2ccccc2)nc1CCc1ccccc1 | 39.3 | – | – | Non-toxic | – | –
13 | > 20 | – | > 50 | > 12.5 | O=C(CCc1nc(CO)c(CCc2ccccc2)s1)CSCCCc1ccccc1 | – | – | – | – | – | –
14 | 24.9 | 30.5 | > 50 | > 33 | CC(=O)OCc1nc(CCC(=O)CSCCCc2ccccc2)sc1CCc1ccccc1 | 29.1 | – | – | Non-toxic | – | –
